Measurements as given in ChEMBL document CHEMBL1777731, “Design and synthesis of potent HIV-1 protease inhibitors incorporating hydroxyprolinamides as novel P2 ligands” (Bioorg Med Chem Lett, 2011).

Tested on: HIV-1 protease (Human immunodeficiency virus 1)
Test: Inhibition of wild type HIV1 protease expressed in Escherichia coli by fluorometric assay

| SMILES | IC50 [µM] |
| --- | --- |
| CC(C)CN(C[C@@H](O)[C@H](Cc1ccccc1)NC(=O)O[C@H]1CN[C@H](C(N)=O)C1)S(=O)(=O)c1ccc(N)cc1 | 0.0166 |
| CC(C)CN(C[C@@H](O)[C@H](Cc1ccccc1)NC(=O)O[C@H]1CN[C@H](C(=O)NC(C)(C)C)C1)S(=O)(=O)c1ccc(N)cc1 | 10.1 |
| CC(C)CN(C[C@@H](O)[C@H](Cc1ccccc1)NC(=O)O[C@H]1CN[C@H](C(=O)Nc2ccccc2)C1)S(=O)(=O)c1ccc(N)cc1 | 14.8 |
| COc1ccc(NC(=O)[C@@H]2C[C@@H](OC(=O)N[C@@H](Cc3ccccc3)[C@H](O)CN(CC(C)C)S(=O)(=O)c3ccc(N)cc3)CN2)cc1 | 0.0154 |
| Cc1ccc(NC(=O)[C@@H]2C[C@@H](OC(=O)N[C@@H](Cc3ccccc3)[C@H](O)CN(CC(C)C)S(=O)(=O)c3ccc(N)cc3)CN2)cc1 | 0.139 |
| COc1ccccc1NC(=O)[C@@H]1C[C@@H](OC(=O)N[C@@H](Cc2ccccc2)[C@H](O)CN(CC(C)C)S(=O)(=O)c2ccc(N)cc2)CN1 | 13 |
| COc1cccc(NC(=O)[C@@H]2C[C@@H](OC(=O)N[C@@H](Cc3ccccc3)[C@H](O)CN(CC(C)C)S(=O)(=O)c3ccc(N)cc3)CN2)c1 | 15.2 |
| COc1ccc(OC)c(NC(=O)[C@@H]2C[C@@H](OC(=O)N[C@@H](Cc3ccccc3)[C@H](O)CN(CC(C)C)S(=O)(=O)c3ccc(N)cc3)CN2)c1 | 11.8 |
| COc1cc(NC(=O)[C@@H]2C[C@@H](OC(=O)N[C@@H](Cc3ccccc3)[C@H](O)CN(CC(C)C)S(=O)(=O)c3ccc(N)cc3)CN2)cc(OC)c1OC | 10.1 |
| CC(C)(C)NC(=O)[C@@H]1CN(Cc2cccnc2)CCN1C[C@@H](O)C[C@@H](Cc1ccccc1)C(=O)N[C@H]1c2ccccc2C[C@H]1O | < 0.01 |
